Earlier results in patent US5565430A, “Azaaspartic acid analogs as interleukin-1β converting enzyme inhibitors” (Sterling Winthrop Inc., priority 1994, dated 1996).

B1: Soluble IL-1 receptor: Soluble IL-1 receptor (protein, UniProt P14778 18-336, looked up)
extracellular domain: LEADKCKEREEKIILVSSANEIDVRPCPLNPNEHKGTITWYKDDSKTPVSTEQASRIHQHKEKLWFVPAKVEDSGHYYCVVRNSSYCLRIKISAKFVENEPNLCYNAQAIFKQKLPVAGDGGLVCPYMEFFKNENNELPKLQWYKDCKPLLLDNIHFSGVKDRLIVMNVAEKHRGNYTCHASYTYLGKQYPITRVIEFITLEENKPTRPVIVSPANETMEVDLGSQIQLICNVTGQLSDIAYWKWNGSVIDEDDPVLGEDYYSVENPANKRRSTLITVLNISEIESRFYKHPFTCFAKNTHGIDAAYIQLIYPVTNFQK
modifications: extracellular domain

How the values were obtained:
[1] = system: rabbit immune complex colitis; settings: animal model of colitis
[2] = system: patients with rheumatoid arthritis; settings: subcutaneous, open-label
[3] = system: chronic myelogenous leukemia cells; settings: cells removed from leukemia patients
[4] = system: PG-APS model of arthritis in rats
[5] = system: patients with active rheumatoid arthritis; settings: subcutaneous, after three weeks of daily treatment
[6] = system: allergic subjects; settings: randomized, double-blind, placebo-controlled

Molecule | tissue necrosis and inflammatory cells in colon [1] | efficacy in rheumatoid arthritis trial [2] | colony growth of leukemia cells [3] | joint swelling [4] | antiinflammatory activity in rheumatoid arthritis patients [5] | cutaneous late-phase allergic reaction [6]
IL-1ra: IL-1 receptor antagonist, naturally occurring | reduced tissue necrosis and the number of inflammatory cells in the colon | shows efficacy | inhibit colony growth | supresses joint swelling | – | –
Antril: The IL-1 receptor antagonist, Antril (Synergen) | – | – | – | – | decrease in joint swelling and less disease activity | –
B1 | – | – | inhibit colony growth | – | – | significantly reduces clinically the cutaneous late-phase allergic reaction
